Source: patent US20060154936A1, “Use of n-'5-'4-(4-methylpiperaziomethyl)-benzoylamido!-2-methylphenyl!-4-(3-pyridyl)2-pyridine-amine for the treatment of pulmonary hypertension” (priority 2002, published 2006)

Tested on: hypoxia-induced pulmonary hypertension
Assay: Hypoxia-induced pulmonary hypertension in rats (hypobaric-hypoxic vs ambient air, 3 weeks)
Assay type: in vivo, Spraque-Dawley rats
Details: for % wall thickness (medial hypertrophy index, pulmonary artery) / RV/LV + S(%) (right ventricle/left ventricular + septum weight ratio) / mPAP (mean pulmonary arterial pressure): 50 mg/kg intraperitoneal once daily for 3 weeks; for mPAP (mean pulmonary arterial pressure): right cardiac catheterization
Excerpt: This study is designed to investigate the effects of PDGF receptor signal transduction blockade on the development of hypoxia-induced pulmonary hypertension using a PDGF receptor-selective tyrosine kinase inhibitor, e.g. COMPOUND I, COMPOUND I mesylate.
The methodology as described by Ortiz L A, Champion H C, Lasky J A and col.
Pulmonary arterial pressure (PAP) can be measured in anesthetized mice with the use of a single-lumen catheter (Nu-Med, Hopkinton, N.Y.). The catheter (145 mm in length, 0.25 mm OD) has a specially curved tip to facilitate passage through the right heart, main pulmonary artery, and the left or right pulmonary artery. Immediately after placement of the pulmonary catheter (30 min in average), pressure in the main pulmonary artery is measured with a pressure transducer (Schneider/Namic, Glenns Falls, N.Y.), and mean PAP is derived electronically and recorded continuously. For the determination of pulmonary arterial wedge pressure, the catheter is advanced to the left or right pulmonary artery and wedged with continuous measurement of the pressure waveform.
Lung morphology and evaluation of right ventricular hypertrophy can be performed as below. The heart is perfused with 0.9% NaCl to remove residual blood, and the right lung is fixed in situ for 2 h by intratracheal instillation of 10% neutral formalin (Sigma, St. Louis, Mo.) at a constant pressure of 30 cmH2O and was preserved in fixative for 24 h. Lung tissues are then sectioned sagittally and embedded in paraffin. Sections (4 μm thick) are generated and mounted on positively charged slides (Fisher Scientific, Pittsburgh, Pa.). Slides are stained with hematoxylin-eosin for light microscopic examination. Immediately after death, hearts are resected to evaluate right ventricular hypertrophy. The atria are removed up to the plane of the atrial-ventricular valves. The right ventricle (RV) free wall is then dissected free of the left ventricle (LV) and septum. The RV and LV plus septum are weighed and the RV-to-LV+septum ratio is calculated.
Ten Spraque-Dawley rats are exposed to hypobaric-hypoxic (HH) conditions and ten ambient air (AA) animals are used as controls. The rats in both conditions are randomized to receive intraperitoneal injections with either once daily COMPOUND I (50 mg/kg) or placebo for 3 weeks. Right cardiac catheterizations are used to evaluate the mean pulmonary arterial pressure (mPAP). Subsequently, the rats are sacrificed for the evaluation of their medial hypertrophy index (% wall thickness of the pulmonary artery), and right ventricular hypertrophy (right ventricle/left ventricular +septum weight ratio; RV/LV+S).

Cc1ccc(NC(=O)c2ccc(CN3CCN(C)CC3)cc2)cc1Nc1nccc(-c2cccnc2)n1 [COMPOUND I]
% wall thickness (medial hypertrophy index, pulmonary artery) (ambient air (AA) rats): 10.32 ± 0.33% | RV/LV + S(%) (right ventricle/left ventricular + septum weight ratio) (ambient air (AA) rats): 24.60 ± 1.08% | mPAP (mean pulmonary arterial pressure) (ambient air (AA) rats): 16.20 ± 1.93 mmHg | % wall thickness (medial hypertrophy index, pulmonary artery) (hypobaric-hypoxic (HH) rats): 14.77 ± 0.73% | RV/LV + S(%) (right ventricle/left ventricular + septum weight ratio) (hypobaric-hypoxic (HH) rats): 35.85 ± 1.29% | mPAP (mean pulmonary arterial pressure) (hypobaric-hypoxic (HH) rats): 19.50 ± 1.32 mmHg | lowering of the index of % wall thickness (rats, 50 mg/kg i.p. once daily, 3 weeks, p=0.001): 59% | reduction of hypoxic-induced pulmonary hypertension (rats, 50 mg/kg i.p. once daily, 3 weeks, p=0.002): 80% | reduction of RV hypertrophy (rats, 50 mg/kg i.p. once daily, 3 weeks, p=0.006): 46%
